{"source": "paper PMC3003779", "about": "(Chemistry & biology, 2010)", "key": {"human recombinant FAAH": {"target": "T1, human recombinant FAAH (Homo sapiens, UniProt O00519)", "T1 sequence (O00519 1-579)": "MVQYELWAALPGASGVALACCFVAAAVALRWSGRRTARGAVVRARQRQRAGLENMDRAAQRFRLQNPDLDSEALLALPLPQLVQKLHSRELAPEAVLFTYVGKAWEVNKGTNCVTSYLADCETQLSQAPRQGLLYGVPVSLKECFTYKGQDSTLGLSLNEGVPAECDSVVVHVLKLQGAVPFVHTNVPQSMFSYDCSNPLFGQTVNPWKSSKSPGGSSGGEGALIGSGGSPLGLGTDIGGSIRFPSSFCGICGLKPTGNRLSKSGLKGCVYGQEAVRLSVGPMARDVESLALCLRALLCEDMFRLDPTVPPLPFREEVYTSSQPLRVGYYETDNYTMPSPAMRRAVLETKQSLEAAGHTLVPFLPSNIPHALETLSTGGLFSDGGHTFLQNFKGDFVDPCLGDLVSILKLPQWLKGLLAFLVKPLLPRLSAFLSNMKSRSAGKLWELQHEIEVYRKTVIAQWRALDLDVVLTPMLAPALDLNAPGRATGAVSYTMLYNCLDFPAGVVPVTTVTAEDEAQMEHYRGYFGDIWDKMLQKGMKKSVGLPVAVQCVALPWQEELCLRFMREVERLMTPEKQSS", "assay": "biochemical", "settings": "in vitro"}, "SHR and WKY rats [1]": {"system": "SHR and WKY rats", "assay": "mean arterial pressure and heart rate in anesthetized rats", "assay_type": "in vivo, rat", "settings": "for hypotensive effect: 0.3 mg/kg"}, "[2]": {"system": "mice with diet-induced obesity", "assay": "intraperitoneal glucose tolerance test in mice on high-fat diet", "assay_type": "in vivo, mouse"}, "FAAH [3]": {"target": "T2, FAAH (Mus musculus, UniProt O08914)", "T2 sequence (O08914 1-579)": "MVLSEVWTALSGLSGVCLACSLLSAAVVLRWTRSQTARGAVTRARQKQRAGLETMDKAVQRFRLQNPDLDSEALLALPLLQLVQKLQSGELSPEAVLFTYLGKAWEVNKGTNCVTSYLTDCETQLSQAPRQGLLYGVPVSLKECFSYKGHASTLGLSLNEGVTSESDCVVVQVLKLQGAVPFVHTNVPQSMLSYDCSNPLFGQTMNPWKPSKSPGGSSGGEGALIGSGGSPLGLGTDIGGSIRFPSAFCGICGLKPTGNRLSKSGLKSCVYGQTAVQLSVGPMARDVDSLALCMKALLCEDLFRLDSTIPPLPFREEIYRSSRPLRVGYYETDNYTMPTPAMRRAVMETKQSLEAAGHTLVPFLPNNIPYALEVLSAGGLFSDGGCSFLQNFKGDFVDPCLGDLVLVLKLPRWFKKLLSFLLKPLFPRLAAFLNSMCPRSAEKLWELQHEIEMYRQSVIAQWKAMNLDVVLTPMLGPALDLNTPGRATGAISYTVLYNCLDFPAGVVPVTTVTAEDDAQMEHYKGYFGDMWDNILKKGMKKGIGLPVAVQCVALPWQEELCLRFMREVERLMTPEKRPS", "assay": "FAAH activity in brain and liver homogenates, drug added in vitro", "assay_type": "biochemical"}, "SHR and WKY rats [4]": {"system": "SHR and WKY rats", "assay": "non-fasting blood glucose in rats", "settings": "10 mg/kg i.p."}, "FAAH [5]": {"target": "T2, FAAH", "assay_type": "cell-based"}, "[6]": {"system": "anandamide levels in hepatocytes", "assay": "anandamide levels in hepatocytes", "assay_type": "cell-based, mouse", "settings": "100 nM, dense suspension 40 mg/mL"}, "Mouse hepatocytes": {"system": "Mouse hepatocytes", "assay": "drug levels in hepatocyte suspensions by LC/MS/MS"}, "FAAH [7]": {"target": "T2, FAAH", "assay": "in vivo", "assay_type": "in vivo", "settings": "mouse"}, "CB1 receptor": {"target": "CB1 receptor (Rattus norvegicus, UniProt P20272)", "sequence (P20272 whole entry)": "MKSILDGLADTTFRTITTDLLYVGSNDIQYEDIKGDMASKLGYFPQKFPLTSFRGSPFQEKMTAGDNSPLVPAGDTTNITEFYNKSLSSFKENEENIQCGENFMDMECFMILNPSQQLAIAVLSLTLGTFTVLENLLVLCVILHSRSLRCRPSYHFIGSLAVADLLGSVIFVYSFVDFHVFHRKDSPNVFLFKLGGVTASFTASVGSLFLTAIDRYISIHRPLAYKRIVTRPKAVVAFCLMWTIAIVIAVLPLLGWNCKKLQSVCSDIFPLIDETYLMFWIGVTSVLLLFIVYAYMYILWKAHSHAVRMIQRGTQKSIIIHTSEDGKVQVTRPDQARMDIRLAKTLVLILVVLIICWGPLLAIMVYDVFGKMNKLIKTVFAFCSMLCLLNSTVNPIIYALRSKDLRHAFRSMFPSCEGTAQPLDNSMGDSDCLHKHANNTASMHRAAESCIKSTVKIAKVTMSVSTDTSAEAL", "assay": "HU210-stimulated [35S]GTPγS binding in brain membranes", "assay_type": "biochemical", "settings": "brain membrane preparations, SHR vs WKY"}}, "note": "Like-named read-outs stand apart in the source and are kept apart here."}
{"smiles": "O=S(=O)(F)Cc1ccccc1", "note": "[PMSF, phenyl methyl sulfonyl fluoride, reference compound]", "values": [{"measurement": "potency against human recombinant FAAH relative to AM3506 and URB597", "setting": "human recombinant FAAH", "value": "3 orders of magnitude less potent"}]}
{"smiles": "Cc1c(C(=O)NN2CCCCC2)nn(-c2ccc(Cl)cc2Cl)c1-c1ccc(Cl)cc1", "note": "[rimonabant]", "values": [{"measurement": "ΔHR, acute reversal of AM3506 effect", "setting": "SHR and WKY rats [1]; SHR, 3 mg/kg, after AM3506", "value": "+129±14 bpm"}, {"measurement": "ΔMBP, acute reversal of AM3506 effect", "setting": "SHR and WKY rats [1]; SHR, 3 mg/kg, after AM3506", "value": "+101±9 mmHg"}]}
{"smiles": "NC(=O)c1cccc(-c2cccc(OC(=O)NC3CCCCC3)c2)c1", "note": "[URB597, reference compound]", "values": [{"measurement": "ipGTT area under the curve (AUC)", "setting": "[2]; liver-specific CB1 knockout (LCB1−/−) mice on HFD, vehicle 322±37", "value": "337 ± 14", "unit": "mg·h/dL"}, {"measurement": "effect on glucose tolerance", "setting": "[2]; liver-specific CB1−/− mice on HFD, 1.38 mg/kg", "value": "failed to affect glucose tolerance"}, {"measurement": "effect on glucose tolerance", "setting": "[2]; liver-specific CB1−/− mice on HFD, 10 mg/kg", "value": "remained ineffective"}, {"measurement": "effect on glucose tolerance", "setting": "[2]; male DIO mice, 1.38 mg/kg", "value": "marked increase in glucose intolerance"}, {"measurement": "ipGTT area under the curve (AUC)", "setting": "[2]; male DIO mice, 1.38 mg/kg i.p. 60 min before glucose, vehicle 352±28", "value": "570 ± 45", "unit": "mg·h/dL"}, {"measurement": "effect on glucose tolerance", "setting": "[2]; wild-type mice on HFD, 10 mg/kg, compared with the lower dose", "value": "same degree of glucose intolerance"}, {"measurement": "FAAH activity in tissue homogenates", "setting": "FAAH [3]", "value": "equally effective in blocking FAAH activity in brain and liver"}, {"measurement": "non-fasting blood glucose after treatment", "setting": "SHR and WKY rats [4]; SHR, from 104.0±7.4", "value": "144.0 ± 9.6", "unit": "mg/dL"}, {"measurement": "non-fasting blood glucose after treatment", "setting": "SHR and WKY rats [4]; WKY, from 90.0±7.2", "value": "135.3 ± 12.9", "unit": "mg/dL"}, {"measurement": "FAAH activity in cell pellet, dilute hepatocyte suspension", "setting": "FAAH [5]", "value": "nearly completely blocked"}, {"measurement": "FAAH activity in cells, dense hepatocyte suspension", "setting": "FAAH [5]", "value": "rapidly and nearly completely blocked"}, {"measurement": "anandamide levels in hepatocytes", "setting": "[6]", "value": "markedly increased"}, {"measurement": "recovery of drug from cell-free medium", "setting": "Mouse hepatocytes; 0 to 30 min, no hepatocytes", "value": "remained constant"}, {"measurement": "drug level in cell pellets, dense hepatocyte suspension", "setting": "Mouse hepatocytes; 100 nM, 40 mg/mL", "value": "gradually declined over 10 min"}, {"measurement": "drug level in medium, dense hepatocyte suspension", "setting": "Mouse hepatocytes; 100 nM, 40 mg/mL", "value": "rapidly depleted from the medium"}, {"measurement": "free drug (parent ion) still present in cell-free supernatant", "setting": "Mouse hepatocytes; dilute hepatocyte suspension 1 mg/mL, 100 nM, 10 min, % of drug added at 0 min", "value": "50–55%"}, {"measurement": "suppression of FAAH activity in brain", "setting": "FAAH [7]; in vivo, po, 10 mg/kg", "value": "86±2", "unit": "%"}, {"measurement": "suppression of FAAH activity in liver", "setting": "FAAH [7]; in vivo, po, 10 mg/kg", "value": "83±0.5", "unit": "%"}, {"measurement": "ED50", "setting": "FAAH [7]; read-out: ID50, inhibition of brain FAAH activity", "value": 0.22, "unit": "mg/kg"}, {"measurement": "ED50", "setting": "FAAH [7]; read-out: ID50, inhibition of liver FAAH activity", "value": 0.45, "unit": "mg/kg"}, {"measurement": "hypotensive/bradycardic potency, times less potent than AM3506", "setting": "SHR and WKY rats [1]; anesthetized SHR", "value": "~ 40 times"}]}
{"smiles": "CCCCCCC(C)(C)c1cc(O)c2c(c1)OC(C)(C)[C@@H]1CC=C(CO)C[C@@H]21", "note": "[HU210]", "values": [{"measurement": "CB1 receptor coupling efficiency, HU210-stimulated GTPγS labeling", "setting": "CB1 receptor", "value": "dramatically increased"}, {"measurement": "hypotension, SHR compared with WKY", "setting": "SHR and WKY rats [1]; 1 μg/kg i.v., anaesthetized rats", "value": "much greater hypotension in SHR than in WKY"}]}
{"smiles": "CCCCCOc1ccc(C(=O)c2cccc3ccccc23)c2ccccc12", "note": "[CB13]", "values": [{"measurement": "hypotensive effect", "setting": "SHR and WKY rats [1]; SHR", "value": "−40±6", "unit": "mmHg"}, {"measurement": "hypotensive effect", "setting": "SHR and WKY rats [1]; WKY", "value": "−36±10", "unit": "mmHg"}]}
{"smiles": "Cc1c(C(=O)NN2CCCCC2)nn(-c2ccc(Cl)cc2Cl)c1-c1ccc(I)cc1", "note": "[AM251]", "values": [{"measurement": "effect on the effects of HU210", "setting": "SHR and WKY rats [1]; SHR and WKY", "value": "abolished"}, {"measurement": "effect of pretreatment on the MAP and HR effects of AM3506", "setting": "SHR and WKY rats [1]; SHR, 3 mg/kg i.p. 60 min before 1 mg/kg AM3506 i.v.", "value": "prevented"}, {"measurement": "acute reversal of the fully developed effects of AM3506", "setting": "SHR and WKY rats [1]; SHR, 3 mg/kg i.v. at the peak hypotensive response to 1 mg/kg AM3506", "value": "acutely reversed"}]}
